{"source": "patent US6518302B1", "about": "“Remedies” (Takara Shuzo Co., Ltd., priority 1999, dated 2003)", "key": {"[1]": {"assay": "Conversion into DGE in culture medium (thin-layer chromatography)", "assay_type": "in vitro ADME", "conditions": "10 mM in RPMI 1640 medium with 10% calf serum, 37° C., 4 hours", "experimental": "The compound (7) or the compound (9) synthesized in Example 1 was dissolved at a final concentration of 10 mM in RPMI 1640 medium supplemented with 10% calf serum. These samples were allowed to stand at 37° C. for 4 hours. […] each of the samples was then subjected to thin-layer chromatography using chloroform:methanol=5:1 as a developing solvent. Detection was carried out using orcinol-sulfuric acid.\nFor each sample, a spot with Rf value of 0.5, the same value as that for the compound of general formula IV in which Z is CH2OH and Y is H (L-glycero-1,5-epoxy-1αβ,6-dihydroxy-cis-hex-3-en-2-one, hereinafter referred to as DGE), was detected."}, "[2]": {"tested_on": "Human promyelocytic leukemia HL-60 cells", "assay": "Antiproliferation activity against HL-60 cells (MTT method)", "assay_type": "cell-based", "conditions": "48 hour incubation", "experimental": "Human promyelocytic leukemia HL-60 cells (ATCC CCL-240) were cultured at 37° C. in RPMI 1640 medium (Gibco) containing 10% of fetal calf serum (JRH Bioscience) which had been treated at 56° C. for 30 minutes, and suspended in the same medium at a concentration of 5000 cells/90 μl. Each 90 μl portion of the suspension was distributed into each well of a 96-well plate (Falcon). To the suspension in each well was added 10 μl of one the following samples, and incubated at 37° C. in the presence of 5% CO2. The samples were 2-, 4-, 8-, 16-, 32-, 64- or 128-dilutions of filter-sterilized 200 mM aqueous solution of the compound (2) obtained in Example 1, 50 mM aqueous solution of the compound (7), 50 mM aqueous solution of the compound (9), 100 mM aqueous solution of the compound (11), 100 mM aqueous solution of the compound (14), 20 mM aqueous solution of the compound (17), 12.5 mM aqueous solution of the compound (19) or 12.5 mM aqueous solution of the compound (21) with sterile water, as well as water. After 48 hour from the initiation of the incubation, the numbers of viable cells calculated based on the absorbance measured according to the MTT method as described in “Apoptosis Jikken Protocol” (Syuzyun-sha, Seiichi Tanuma, ed., pp. 156 (1994)) were compared each other."}, "[3]": {"tested_on": "HL-60 (ATCC CCL-240) cells", "assay": "Apoptosis morphology in HL-60 cells under optical microscope", "assay_type": "cell-based, Human", "conditions": "24 hours", "experimental": "(§1) HL-60 (ATCC CCL-240) cells were cultured at 37° C. in RPMI 1640 medium (Bio Whittaker) containing 10% fetal calf serum (JRH) which had been treated at 56° C. for 30 minutes and suspended in RPMI 1640 medium at a concentration of 2.5×10^5 cells/4.5 ml. […] each of aqueous solutions of the compound (2) at a concentration of 10, 50 or 100 mM, the compound (7) at a concentration of 500, 1000 or 1500 μM, the compound (9) at a concentration of 750, 1500 or 3000 μM, the compound (11) at a concentration of 750, 1500 or 3000 μM, or the compound (14) at a concentration of 750, 1500 or 3000 μM was added to 4.5 ml of the suspension. The mixtures were incubated at 37° C. for 24 hours in the presence of 5% CO2. The cultured cells were examined under an optical microscope."}, "[4]": {"tested_on": "HL-60 (ATCC CCL-240) cells", "assay": "Measurement of apoptotic cells using FACScan", "assay_type": "cell-based, Human", "conditions": "HL-60 cells, 24 hours", "experimental": "as §1, with “CO2. Measurement of apoptotic cells using FACScan as described in Saibo Kogaku, Bessatsu (Cell Technology, Suppl.) Jikken Protocol Series: Apoptosis Jikken Protocol (Experimental Protocol Series: Experimental Protocols for Apoptosis) (Shujun-sha) pp. 129-130 and analysis of DNA fragmentation as described in Bio Manual UP Series: […] Apoptosis Jikken-ho (Bio Manual UP Series: Current Experimental Methods for Apoptosis) (Yodo-sha) pp. 61-63 were carried out using cells” for “CO2. The”, “cultured for 24 or 48 hours in the same manner as that described above.” for “cultured cells were examined under an optical microscope.”"}, "[5]": {"tested_on": "HL-60 (ATCC CCL-240) cells", "assay": "Analysis of DNA fragmentation", "assay_type": "cell-based, Human", "conditions": "HL-60 cells", "experimental": "as §1, with “CO2. Measurement of apoptotic cells using FACScan as described in Saibo Kogaku, Bessatsu (Cell Technology, Suppl.) Jikken Protocol Series: Apoptosis Jikken Protocol (Experimental Protocol Series: Experimental Protocols for Apoptosis) (Shujun-sha) pp. 129-130 and analysis of DNA fragmentation as described in Bio Manual UP Series: […] Apoptosis Jikken-ho (Bio Manual UP Series: Current Experimental Methods for Apoptosis) (Yodo-sha) pp. 61-63 were carried out using cells” for “CO2. The”, “cultured for 24 or 48 hours in the same manner as that described above.” for “cultured cells were examined under an optical microscope.”"}, "[6]": {"tested_on": "HL-60 (ATCC CCL-240) cells", "assay": "Viability of HL-60 cells by Trypan Blue staining", "assay_type": "cell-based", "conditions": "Homo sapiens, read-out: Viability50, concentration that results in a viability of 50%", "experimental": "HL-60 (ATCC CCL-240) cells were cultured at 37° C. in RPMI 1640 medium (Bio Whittaker) containing 10% fetal calf serum (JRH) which had been treated at 56° C. for 30 minutes and suspended in RPMI 1640 medium at a concentration of 2.5×10^5 cells/4.5 ml.\n[…] each of aqueous solutions of the compound (2) at a concentration of 10, 50 or 100 mM, the compound (7) at a concentration of 500, 1000 or 1500 μM, the compound (9) at a concentration of 750, 1500 or 3000 μM, the compound (11) at a concentration of 750, 1500 or 3000 μM, or the compound (14) at a concentration of 750, 1500 or 3000 μM was added to 4.5 ml of the suspension. The mixtures were incubated at 37° C. for 24 hours in the presence of 5% CO2.\nA portion of the cells cultured for 24 or 48 hours as described in Example 4 was stained with 0.4% Trypan Blue and examined under an optical microscope. The number of viable cells which were not stained and the number of dead cells which were stained blue were counted. The concentration of each of the compounds (2), (7), (9), (11) and (14) that results in a viability of 50% (Viability50 mM) was determined."}}, "note": "Where two headings read alike, the source gives them in different places.", "data": [{"smiles": "O=C[C@H](O)[C@H]1OC[C@@H](O)[C@@H]1O", "note": "[Compound (2), 3,6-anhydro-D-galactose, reference compound]", "values": [{"measurement": "conversion into DGE (spot with Rf value of 0.5, the same value as DGE)", "setting": "[1]", "result": "conversion into DGE was also observed"}, {"measurement": "antiproliferation activity against HL-60 cells", "setting": "[2]", "result": "exhibited antiproliferation activities"}, {"measurement": "IC50", "setting": "[2]; Homo sapiens, HL-60 cells, read-out: IC50, concentration at which 50% of the proliferation is inhibited", "result": 0.86, "unit": "mM"}, {"measurement": "final concentration at which condensation of nuclei, shrinking of cells and formation of apoptotic bodies were observed", "setting": "[3]", "result": "≥ 5", "unit": "mM"}, {"measurement": "final concentration at which apoptotic cells were observed", "setting": "[4]", "result": "≥ 5", "unit": "mM"}, {"measurement": "final concentration at which DNA fragmentation was observed", "setting": "[5]; 24 hours", "result": "≥ 5", "unit": "mM"}, {"measurement": "final concentration at which DNA fragmentation was observed", "setting": "[5]; 48 hours", "result": "≥ 1", "unit": "mM"}, {"measurement": "IC50", "setting": "[6]; 24 hours", "result": 18.1, "unit": "mM"}, {"measurement": "IC50", "setting": "[6]; 48 hours", "result": 3.4, "unit": "mM"}]}]}
